Measurements as given in paper PMC3879575, “Evidence That GH115 α-Glucuronidase Activity, Which Is Required to Degrade Plant Biomass, Is Dependent on Conformational Flexibility” (The Journal of Biological Chemistry, 2013).

What was measured:
[1] = molecular target: T1, BoAgu115A (BACOVA_03449) (Bacteroides ovatus, UniProt A0ABU3IS40); experiment: X-ray crystal structure, […] Å; format: binding; conditions: crystals soaked with 300 mM GlcA; pH 5.5; active site; open-chain form
T1 construct: mature form (signal peptide removed), N-terminal His6 tag (pET28a), E. coli BL21 DE3, 824 residues, 85 kDa, homodimer; modelled residues 33-856

[2] = molecular target: T1, BoAgu115A (BACOVA_03449); experiment: coupled alpha-D-glucuronidase assay kit, NADH at […] nm; format: biochemical; conditions: PC buffer (50 mM sodium phosphate, 12 mM citrate) pH 6.5, 1 mg/ml BSA, 37 °C
[3] = molecular target: BoAgu115A (BACOVA_03449), GH115 α-glucuronidase of Bacteroides ovatus (Bacteroides ovatus); experiment: AUC; sedimentation velocity, interference optics, 48,000 rpm, 20 °C, sample volume 400 μl

Row | Compound | Km [2] [mM] | further results
1 | O=C[C@H](O)[C@@H](O)[C@H](O)[C@H](O)C(=O)O [GlcA] | – | X-ray crystal structure, 2.14 Å [1]: BoAgu115A was co-crystallized with GlcA, which revealed electron density for the uronic acid
2 | CO[C@H]1[C@H](O)[C@@H](O)[C@@H](O[C@H]2[C@H](O[C@@H]3CO[C@@H](O[C@@H]4COC(O)[C@H](O)[C@H]4O)[C@H](O)[C@H]3O)OC[C@@H](O[C@@H]3OC[C@@H](O)[C@H](O)[C@H]3O)[C@@H]2O)O[C@@H]1C(=O)O (stereo partly shown) [XUXX] | 4.5 | –
3 | BoAgu115A (BACOVA_03449), GH115 α-glucuronidase of Bacteroides ovatus (enzyme) | – | stoichiometry N [3]: 2
4 | UXX | 19.5 | –
